Laboratory results taken from ChEMBL document CHEMBL1137838, “Synthesis and structure-activity relationships of andrographolide analogues as novel cytotoxic agents” (2004).

Tests used:
Type in all cases: functional
[1] = system: SK-OV-3; assay: Concentration causing 50% inhibition of cancer cell growth against human ovarian SKOV3 cell line
[2] = system: DU-145; assay: Concentration causing 50% inhibition of cancer cell growth against human prostate DU145 cell line
[3] = system: U-251; assay: Concentration causing 50% inhibition of cancer cell growth against human CNS U251 cell line
[4] = system: NCI-H522; assay: Concentration causing 50% inhibition of cancer cell growth against human lung H522 cell line
[5] = system: SW-620; assay: Concentration causing 50% inhibition of cancer cell growth against human colon SW620 cell line
[6] = system: NCI/ADR-RES; assay: Concentration causing 50% inhibition of cancer cell growth against human breast MCF-7/ADR cell line
[7] = system: A498; assay: Concentration causing 50% inhibition of cancer cell growth against human renal A498 cell line

Row | SMILES | IG50 [1] [µM] | IG50 [2] [µM] | IG50 [3] [µM] | IG50 [4] [µM] | IG50 [5] [µM] | IG50 [6] [µM] | IG50 [7] [µM]
1 | CC(=O)OC[C@@]1(C)[C@H]2CC[C@@H](C=O)[C@@H](C/C=C3/C(=O)OC[C@H]3OC(C)=O)[C@]2(C)CC[C@H]1OC(C)=O | 3 | 12 | 62 | 34 | 32 |  | 
2 | C=C1CC[C@@H]2[C@](C)(CO)[C@H](O)CC[C@@]2(C)[C@@H]1C/C=C(/C(=O)O)[C@H](O)CO | >100 | >100 | >100 | 80 | >100 | 30 | 4
3 | CCC(=O)OC[C@@]1(C)[C@H]2CC[C@@]3(CO3)[C@@H](C/C=C3/C(=O)OC[C@H]3OC(=O)/C=C/c3ccc(OC)cc3)[C@]2(C)CC[C@H]1OC(=O)CC | 2 | 2 | 3 | 4.8 | 0.6 | 3 | 3
4 | CC(=O)OC[C@@]1(C)[C@H]2CC[C@@]3(CO3)[C@@H](C/C=C3/C(=O)OC[C@H]3O)[C@]2(C)CC[C@H]1OC(C)=O | >100 |  | 40 |  | 20 | 30 | 20
5 | CC(=O)O[C@@H]1CC[C@]2(C)[C@H](CC[C@@]3(CO3)[C@H]2C/C=C2/C(=O)OC[C@H]2O)[C@]1(C)CO | 50 | 50 | 45 | 60 | >100 | 20 | 20
6 | CC(C)(C)OC(=O)NCC(=O)O[C@@H]1COC(=O)/C1=C/C[C@@H]1[C@@]2(CC[C@@H]3[C@](C)(CO)[C@H](O)CC[C@]31C)CO2 | 6 | 20 | 40 | >100 | 40 | 7 | 5
7 | CCC(=O)OC[C@@]1(C)[C@H]2CC[C@@]3(CO3)[C@@H](C/C=C3/C(=O)OC[C@H]3OC(=O)/C=C/c3ccc(OC)c(OC)c3)[C@]2(C)CC[C@H]1OC(=O)CC | 2.5 | 2.5 | 2 | 7.5 | 0.4 | 1.5 | 3.5
8 | CC(=O)O[C@@H]1COC(=O)/C1=C/C[C@@H]1[C@@]2(CC[C@@H]3[C@](C)(CO)[C@H](O)CC[C@]31C)CO2 | 5 | 25 | 50 | 25 | 20 | 20 | 7
9 | CC(=O)OC[C@@]1(C)[C@H]2CC[C@@]3(CO3)[C@@H](C/C=C3/C(=O)OC[C@H]3OC(=O)CNC(=O)OC(C)(C)C)[C@]2(C)CC[C@H]1OC(C)=O | 8 | 7 | 4 | 4 | 3 | 4 | 20
10 | C[C@]1(CO)[C@H]2CC[C@@]3(CO3)[C@@H](C/C=C3/C(=O)OC[C@H]3O)[C@]2(C)CC[C@H]1O | 4 | 20 | 16 | 30 | 30 | 20 | 30
11 | CCC(=O)OC[C@@]1(C)[C@H]2CC[C@@]3(CO3)[C@@H](C/C=C3/C(=O)OC[C@H]3OC(=O)/C=C/c3ccccc3)[C@]2(C)CC[C@H]1OC(=O)CC | 10 | 4 | 6 | 20 | 2.5 | 0.08 | 3
12 | CCC(=O)OC[C@@]1(C)[C@H]2CC[C@@]3(CO3)[C@@H](C/C=C3/C(=O)OC[C@H]3OC(=O)CC)[C@]2(C)CC[C@H]1OC(=O)CC | 1.36 | 3 | 3 | 3 | 2 |  | 
13 | CC(=O)O[C@@H]1COC(=O)/C1=C/C[C@@H]1[C@@]2(CC[C@@H]3[C@](C)(CO)[C@H](OC(C)=O)CC[C@]31C)CO2 | 2.5 | 6.5 | 30 | 30 | 55 | 20 | 6
14 | C=C1CC[C@@H]2[C@](C)(CO)[C@H](O)CC[C@@]2(C)[C@@H]1/C=C/C1=CCOC1=O |  | 2 | 81 | >100 | >100 | >100 | 
15 | C[C@]1(CO)[C@H]2CC[C@@]3(CO3)[C@@H](C/C=C3/C(=O)OC[C@H]3OC(=O)/C=C/c3ccccc3)[C@]2(C)CC[C@H]1O | 4 | 5.5 | 6 | 6 | 0.5 | 2 | 9
16 | CC(=O)OC[C@@]1(C)[C@H]2CCC3=COC(C4=CCOC4=O)C[C@H]3[C@]2(C)CC[C@H]1OC(C)=O (stereo partly drawn) | 40 | 40 | 30 | 50 | 40 | 40 | 
17 | C=C1CC[C@@H]2[C@](C)(CO)[C@H](O)CC[C@@]2(C)[C@@H]1CCC1C(=O)OC[C@H]1O (stereo partly drawn) | >100 | 2 | 85 | >100 | >100 |  | 
18 | CCC(=O)OC[C@@]1(C)[C@H]2CC[C@@]3(CO3)[C@@H](C/C=C3/C(=O)OC[C@H]3OC(=O)/C=C/c3ccc4c(c3)OCO4)[C@]2(C)CC[C@H]1OC(=O)CC | 0.3 | 4 | 35 | 3 | 65 | 20 | 6
19 | CCC(=O)OC[C@@]1(C)[C@H]2CC[C@@]3(CO3)[C@@H](C/C=C3/C(=O)OC[C@H]3OC(=O)CNC(=O)OC(C)(C)C)[C@]2(C)CC[C@H]1OC(=O)CC | 15 | 20 | 20 | 4 | 30 | 15 | 4
20 | CC(=O)OC[C@@]1(C)[C@H]2CC[C@@]3(CO3)[C@@H](C/C=C3/C(=O)OC[C@H]3OC(C)=O)[C@]2(C)CC[C@H]1OC(C)=O | 25 | 15 | 2.5 | 15 | 1 | 5 | 0.25
21 | CCC(=O)O[C@@H]1COC(=O)/C1=C/C[C@@H]1[C@@]2(CC[C@@H]3[C@](C)(CO)[C@H](OC(=O)CC)CC[C@]31C)CO2 | 3 | 20 | 35 | 40 | 7 | 30 | 40
22 | CC(=O)OC[C@@]1(C)[C@H]2CC[C@@H](CO)[C@@H](C/C=C3/C(=O)OC[C@H]3OC(C)=O)[C@]2(C)CC[C@H]1OC(C)=O | 3 | 2 | 19 | 19 | 7 |  | 
23 | C=C1CC[C@@H]2[C@](C)(CO)[C@H](O)CC[C@@]2(C)[C@@H]1C/C=C1/C(=O)OC[C@H]1O [ANDROGRAPHOLIDE] | 15 | 20 | 3 | 17 | 10 | 15 | 30
24 | C=C1CC[C@@H]2[C@](C)(CO)[C@H](O)CC[C@@]2(C)[C@@H]1CCC1=CCOC1=O [DEOXYANDROGRAPHOLIDE] | 0.18 | 5 | >100 | >100 | 54 |  | 
